# Experiments:
# type I collagen = assay: Collagen 1 expression in WJMSC cells, Western blotting; assay type: cell-based, human; settings: for expression of pro-collagen 1: FIG. 3(B), ImageJ fold change vs control, normalized to β-actin
# Method: (§1) Wharton's Jelly mesenchymal stein cells (WJMSC cells: BCRC H-WJ001) were cultured in α-MEM medium supplemented with 10% to 20% of fetal bovine serum (FBS) and 2 to 8 ng/mL of human basic fibroblast growth factor (bFGF). In the present invention, the WJMSC cells are incubated in α-MEM medium supplemented with 10% FBS and 4 ng/mL bFGF. In addition, the WJMSC cells are incubated in an incubator with a temperature of 37° C. and 5% carbon dioxide (CO2).
# (§2) The WJMSC cells were seeded onto culture dishes at a cell density of 5×10^4 cells/cm^2, and incubated in a first medium of 10% FBS α-MEM medium supplemented with and 4 ng/mL bFGF for 24 hours. After 24 hours, the first medium was removed and the WJMSC cells were washed by 1× phosphate-buffered saline (PBS) for two to three times. The WJMSC cells were then incubated in a second medium for 48 hours. The second medium contains α-MEM medium supplemented with bFGF (ProSpece cat: cyt-218-b), proline (Calbiochem, cat: #5370), arginine (Merck, cat: #1011542) or L-ascorbic acid (Sigma, cat: SI-A8960) as experimental design. After 48 hours, the cells were collected for protein extraction, and expression of type I collagen (abbreviated to “collagen 1”) and type III collagen (abbreviated to “collagen 3”) was examined.
# (§3) The cell medium was removed and the cells were washed by 1× PBS for two times. The cells were treated with 10 mM EDTA (ethylenediaminetetraacetic acid)-PBS solution or 0.5 M acetic acid and scraped down at 4° C. to obtain a first mixture. The first mixture was placed into a centrifuge tube for lysing cells by a sonication process. The sonication process comprises sonication at […] for 15 seconds by an ultrasonicator for three times, and the time interval between each sonication is 30 seconds. After the sonication process, the first mixture was centrifuged at 4° C. at a speed of 2000 rpm for 30 minutes to obtain a protein crud extract.
# (§4) In addition, a cell lysis buffer can be used for cell protein extraction. The extraction method comprises the steps of removing cell medium, washing the cells by 1× PBS twice, adding RIPA cell lysis buffer containing 10 mM EDTA into the cells and shaking for at least 30 minutes, scraping down the cells to obtain a cells-lysis buffer mixture, placing the cells-lysis buffer mixture into a centrifuge tube, and centrifuging at 4° C. at a speed of 12000 rpm for at least 15 minutes to obtain a protein crud extract.
# (§5) The protein crud extract was then mixed with 25% saturated […] solution, or mixed with 3M sodium chloride (NaCl) solution for reaction at 4° C. for 24 hours to perform a salting-out process. After 24 hours, the mixed solution was centrifuged at 4° C. at a speed of 3500 g for 30 minutes, and a supernatant was removed to preserve a sediment. The sediment was washed by 1× PBS, and centrifuged at 4° C. at a speed of 3500 g for 30 minutes. The sediment was preserved and dissolved by 0.5 M acetic acid solution to obtain a protein extract. The protein extract was then analyzed by Western blotting assay to detect expression of collagen. All the experiments were repeated at least twice and the results with representative are disclosed.
# (§6) FIG. 3(A) is a diagram showing effects of L-ascorbic acid and proline on collagen expression in WJMSC cells. In FIG. 3(A), “AA(5)” represents that WJMSC cells were treated with 5 μM L-ascorbic acid, “Pro(2)” represents that WJMSC cells were treated with 2 mM proline, and “bFGF(4)” represents that the WJMSC cells were treated with 4 ng/mL bFGF. In addition, pro-collagen 1, collagen 1, pro-collage 3 and collagen 3 are marked by arrow signs in FIG. 3(A). […] Referring to FIG. 3(B), the results in FIG. 3(A) are quantified by ImageJ software, the quantification method comprises steps of acquiring a density value of a band of a target in Western blotting and normalizing the density value with a density value of β-actin of the same sample to obtain a normalization value. […]
# type III collagen = assay: Collagen 3 expression in WJMSC cells, Western blotting; assay type: cell-based, human; settings: for expression of pro-collagen 3: FIG. 3(B), ImageJ fold change vs control, normalized to β-actin
# Method: as §1, §2, §3, §4, §5, §6
# [1] = system: Human foreskin fibroblasts (HS68); assay: Wound healing of HS68 cells on collagen-coated culture dish; assay type: cell-based; settings: for Wound size (%): dish coated with 50 μg/mL collagen; for Wound healing percentage (%): relative to wound size at 2 hours
# Method: Human foreskin fibroblasts (HS68) were seed and attached onto a culture dish at a density of 2×10^4 cells/cm^2 and were incubated in 10% FBS DMEM medium for 24 hours. In control group, an ordinary culture dish without any treatment was used. In collagen group, a collagen-coated culture dish used is prepared by dropping appropriate amount of collagen extracted from WJMSC cells at a concentration of 50 μg/mL on a surface of the culture dish, spreading the collagen evenly, and placing the culture dish into a 37° C. incubator overnight to obtain the collagen-coated culture dish. After the HS68 cells were cultured for 24 hours, the culture medium of HS68 cells was removed and the cells were washed by 1× PBS. A wound was generated on the attached cells, and the wound was observed and photographed at 0, 2, 4, 6, and 20 hours after wound generation by a microscopy. The photographs were analyzed by ImageJ software. The region has no cell on it is considered as a wound size, and a wound healing percentage is calculated by the following formula:
# Wound healing percentage (%)=[(wound size at observed time point−wound size at 2 hours after wound generation)/wound size at 2 hours after wound generation]×100%.
# [2] = WJMSC cells treated with 5 μM L-ascorbic acid
# [3] = WJMSC cells treated with 0.2 mM to 20 mM of arginine (FIG. 1)
# [4] = WJMSC cells treated with arginine alone, 0.2 mM (FIG. 2)
# [5] = WJMSC cells treated with 0.2 mM proline
# [6] = WJMSC cells treated with 2 mM proline, vs control
# [7] = WJMSC cells treated with 5 mM to 20 mM proline, same enhancement as with 2 mM
# [8] = WJMSC cells treated with 4 ng/mL bFGF
molecule,measurement,setting,value
O=C1O[C@H]([C@@H](O)CO)C(O)=C1O [L-ascorbic acid],expression of pro-collagen 1,type I collagen; 5 μM L-ascorbic acid,enhanced
same,expression of collagen 1,type I collagen; [2],enhanced
same,expression of pro-collagen 3,type III collagen; 5 μM L-ascorbic acid,enhanced
same,expression of collagen 3,type III collagen; [2],enhanced
N=C(N)NCCC[C@H](N)C(=O)O [arginine],expression of collagen 1,type I collagen; [3],not is enhanced
same,expression of collagen 1,type I collagen; [4],not enhanced
same,expression of collagen 3,type III collagen; [3],not is enhanced
same,expression of collagen 3,type III collagen; [4],not enhanced
O=C(O)[C@@H]1CCCN1 [proline],expression of pro-collagen 1,type I collagen; 2 mM proline,enhanced
same,expression of collagen 1,type I collagen; [5],enhanced
same,expression of collagen 1,type I collagen; [6],enhanced
same,expression of collagen 1,type I collagen; [7],not achieved
same,expression of pro-collagen 3,type III collagen; 2 mM proline,enhanced
same,expression of collagen 3,type III collagen; [5],enhanced
same,expression of collagen 3,type III collagen; [6],enhanced
same,expression of collagen 3,type III collagen; [7],not achieved
Collagen,Wound size (%),[1]; 2 hr after wound generation,15.2%
same,Wound healing percentage (%),[1]; 4 hr after wound generation,13.0%
same,Wound size (%),[1]; 4 hr after wound generation,13.3%
same,Wound healing percentage (%),[1]; 6 hr after wound generation,38.0%
same,Wound healing percentage (%),"[1]; 6 hr after wound generation, listed as collagen",38%
same,Wound size (%),[1]; 6 hr after wound generation,9.4%
same,Wound healing percentage (%),[1]; 20 hr after wound generation,100.0%
same,Wound healing percentage (%),"[1]; 20 hr after wound generation, listed as collagen",100%
same,Wound size (%),[1]; 20 hr after wound generation,0.0%
same,cell density,"[1]; 20 hr, 10× objective lens, vs control group (FIG. 6)",higher
same,cells observed on the wound region,"[1]; after 4 hours and 6 hours of wound generation, microscopy, vs control group (FIG. 6)",more significant
same,wound region covered by cells,"[1]; after 20 hours of wound generation, microscopy (FIG. 6)",all covered by cells
same,"wound healing percentage, collagen group compared with control group",[1]; over the observed time points,better
bFGF: human basic fibroblast growth factor (bFGF),expression of pro-collagen 1,type I collagen; 4 ng/mL bFGF,enhanced
same,expression of collagen 1,type I collagen; [8],enhanced
same,expression of pro-collagen 3,type III collagen; 4 ng/mL bFGF,enhanced
same,expression of collagen 3,type III collagen; [8],enhanced

# — patent publication US20190276798A1, “METHOD FOR PREPARING COLLAGEN HAVING REGENERATION AND REPAIR EFFECTS FROM WHARTON'S JELLY MESENCHYMAL STEM CELLS” (P.E. ASIA BIOMEDICINE CO., LTD., priority 2018, published 2019)
